Measurements as given in publication PMC10349806 (Nature Communications, 2023).
“And” between values parts separate entries of the source, which are not always exact repeats. Identical values can stand only once.

Tests used:
PfCRT variant D329N = test: CQ uptake assay, oocytes expressing D329N; assay type: cell-based, Plasmodium falciparum
Experimental: (§1) Site-directed mutagenesis of PfCRT^Dd2 was performed as described using the megaprimer method with overlap extension[21],[54]. The primer pairs used are listed in Supplementary Table 6. Please note that a codon-optimized and oocyte-adapted version of PfCRT^Dd2 was used[22] (Supplementary Fig. 16). The resulting DNA fragment was cloned into the SP64T expression vector and verified by sequencing.
(§2) Oocytes were obtained as described previously. Briefly, adult (>2 years old) female X. laevis frogs (NASCO) were anesthetized in a cooled solution of ethyl 3-amino benzoate methanesulfonate (0.1%, w/v), followed by a surgical removal of parts of the ovary. The ovary lobes were carefully dissected and small pieces of oocytes were incubated in Ca^2+-free ND96 buffer (96 mM NaCl, 2 mM KCl, 1 mM MgCl2 buffered with 5 mM HEPES/NaOH, pH 7.5) supplemented with collagenase D (0.1%, w/v; Roche), BSA (0.5%, w/v), and 9 mm Na2HPO4 at 18 °C for 14-16 h while gentle shaking. After incubation, the oocytes were carefully washed several times with ND96 buffer (96 mM NaCl, 2 mM KCl, 1.8 mM CaCl2, 1 mM MgCl2 buffered with 5 mM HEPES/NaOH, pH 7.5) supplemented with 100 mg l^−1 gentamycin). Defolliculated and healthy-looking stage V-VI oocytes were manually selected for RNA microinjection. The RNA was generated as following: The codon-optimized sequences of PfCRT variants were cloned into the pSP64T expression vector. After vector linearization using the restriction endonucleases BamHI or SalI (New England Biolabs), transcription was performed using the in vitro SP6 mMessage mMachine Kit (Ambion)[34]. The obtained RNA was kept at −80 °C and diluted with nuclease-free water to a concentration of 0.6 μg μl^−1. Precision-bore glass capillary tubes (3.5-inch glass capillaries; Drummond Scientific Co.) were pulled on a vertical puller (P-87 Flaming/Brown micropipette puller, Sutter Instrument Co.), graduated, and placed on a microinjector (Nanoject II Auto-Nanoliter Injector, Drummond Scientific Co.). 50 nl of nuclease-free water alone (control oocytes) or 50 nl of 0.6 μg μl^−1 RNA were injected under stereomicroscopic control. Injected oocytes were incubated for 46–72 h at 18 °C with twice-daily buffer changes before usage in experiments.
(§3) Drug uptake assays were performed as described previously[21],[22],[24],[34]. […] The direction of radio-labeled drug transport is here from the mostly acidic extracellular solution (pH 4.5 or 6.0, as indicated) into the oocyte cytosol (pH ∼ 7.2), which corresponds to the efflux of drug from the acidic digestive vacuole (pH 5.2) into the parasite cytoplasm (pH 7.2). The topology of PfCRT in the oolemma is such that both the N- and C-terminus face the extracellular milieu[3],[22]. In the parasite, the N- and C-terminus face the lumen of the digestive vacuole. CQ uptake kinetics were performed by incubating oocytes in ND96 buffer adjusted to a pH of 4.5, 5.0, 5.5, or 6.0 and supplemented with 50 nM [^3H]CQ and one of 7 different CQ concentrations (10 µM, 50 µM, 100 µM, 200 µM, 300 µM, 400 µM, 500 µM CQ). The reaction was stopped at the 60 min time point, which is in the linear uptake range[22],[34] (Supplementary Fig. 17). […] The radioactivity of each sample was measured using a liquid scintillation analyzer Tri-Carb 4910 TR (PerkinElmer). Oocytes that were injected with water instead of RNA were analyzed in parallel, representing the uptake of a drug by diffusion and/or endogenous permeation pathways. […]

[1] = target: T1, PfCRT variant CD3 (F3A, E29A, F52A, Y238A, F340A, E399A, E407A) (Plasmodium falciparum, UniProt Q9N623, A220S/E29A/E399A/E407A/F340A/F3A/F52A/I356T/K76T/M74I/N326S/N75E/Q271E/R371I/Y238A); test: CQ uptake assay, oocytes expressing CD3; assay type: cell-based
T1 sequence (Q9N623 1-424 F3A/E29A/F52A/M74I/N75E/K76T/A220S/Y238A/Q271E/N326S/F340A/I356T/R371I/E399A/E407A): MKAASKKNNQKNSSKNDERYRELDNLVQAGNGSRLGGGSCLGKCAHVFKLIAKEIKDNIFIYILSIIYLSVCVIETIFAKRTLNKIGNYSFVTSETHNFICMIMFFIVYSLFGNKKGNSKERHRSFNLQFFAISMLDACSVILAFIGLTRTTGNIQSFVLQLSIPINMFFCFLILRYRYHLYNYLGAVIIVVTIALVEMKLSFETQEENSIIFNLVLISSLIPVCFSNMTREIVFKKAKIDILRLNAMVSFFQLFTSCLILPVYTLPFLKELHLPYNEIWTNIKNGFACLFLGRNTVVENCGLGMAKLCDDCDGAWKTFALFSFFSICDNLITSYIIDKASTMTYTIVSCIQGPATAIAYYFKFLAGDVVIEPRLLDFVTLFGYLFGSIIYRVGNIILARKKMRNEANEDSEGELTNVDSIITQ
Experimental: as §1, §2
Drug uptake assays were performed as described previously[21],[22],[24],[34]. […] The direction of radio-labeled drug transport is here from the mostly acidic extracellular solution (pH 4.5 or 6.0, as indicated) into the oocyte cytosol (pH ∼ 7.2), which corresponds to the efflux of drug from the acidic digestive vacuole (pH 5.2) into the parasite cytoplasm (pH 7.2). The topology of PfCRT in the oolemma is such that both the N- and C-terminus face the extracellular milieu[3],[22]. In the parasite, the N- and C-terminus face the lumen of the digestive vacuole. CQ uptake kinetics were performed by incubating oocytes in ND96 buffer adjusted to a pH of 4.5, 5.0, 5.5, or 6.0 and supplemented with 50 nM [^3H]CQ and one of 7 different CQ concentrations (10 µM, 50 µM, 100 µM, 200 µM, 300 µM, 400 µM, 500 µM CQ). The reaction was stopped at the 60 min time point, which is in the linear uptake range[22],[34] (Supplementary Fig. 17). For determination of the amount of drug uptake for each oocyte, the reaction medium was removed and the oocytes were washed three times with 2 ml of ice-cold ND96 buffer. Each oocyte was individually transferred to a scintillation vial containing 5% sodium dodecyl sulfate (200 μl) for lysis. The radioactivity of each sample was measured using a liquid scintillation analyzer Tri-Carb 4910 TR (PerkinElmer). Oocytes that were injected with water instead of RNA were analyzed in parallel, representing the uptake of a drug by diffusion and/or endogenous permeation pathways. The resulting value represents the “background“ level of drug accumulation in oocytes (in-depth discussion in[22]). […]

PfCRT variant F203A = test: CQ uptake assay, oocytes expressing F203A; assay type: cell-based, Plasmodium falciparum
Experimental: as §1, §2, §3

[2] = D329N, 50 µM CQ, 1 h, mean ± SEM
[3] = pH 4.5, single replicates, Fig 1d left
[4] = pH 6.0, single replicates, Fig 1d left
[5] = F203A, 50 µM CQ, 1 h, mean ± SEM

## CCN(CC)CCCC(C)Nc1ccnc2cc(Cl)ccc12 (stereo not shown) [CQ, chloroquine]
PfCRT variant D329N; [2]
  Activity at pH 4.5: 0.39 ± 0.14 pmol h-1 oocyte-1
  Activity at pH 6.0: 1.25 ± 0.32 pmol h-1 oocyte-1
PfCRT variant D329N; D329N, CQ transport at pH 4.5 / pH 6.0
  R-value: 0.32 ± 0.07
PfCRT variant D329N; [3]
  D329N transport activity pH 4.5: 0.14 pmol oocyte-1 h-1 and 0.71 pmol oocyte-1 h-1 and 0.33 pmol oocyte-1 h-1
PfCRT variant D329N; [4]
  D329N transport activity pH 6.0: 0.49 pmol oocyte-1 h-1 and 1.49 pmol oocyte-1 h-1 and 1.76 pmol oocyte-1 h-1
[1]; CD3, 50 µM CQ, 1 h, mean ± SEM
  Activity at pH 4.5: 1.78 ± 0.46 pmol h-1 oocyte-1
  Activity at pH 6.0: 2.73 ± 0.57 pmol h-1 oocyte-1
[1]; CD3, CQ transport at pH 4.5 / pH 6.0
  R-value: 0.62 ± 0.06
[1]; [3]
  CD3 transport activity pH 4.5: 0.66 pmol oocyte-1 h-1 and 2.21 pmol oocyte-1 h-1 and 2.46 pmol oocyte-1 h-1
[1]; pH 4.5 vs pH 6.0, Fig 1d left
  CD3 R-value: 0.47 and 0.72 and 0.65
[1]; [4]
  CD3 transport activity pH 6.0: 1.39 pmol oocyte-1 h-1 and 3.05 pmol oocyte-1 h-1 and 3.76 pmol oocyte-1 h-1
PfCRT variant F203A; [5]
  Activity at pH 4.5: 0.93 ± 0.19 pmol h-1 oocyte-1
  Activity at pH 6.0: 2.55 ± 0.14 pmol h-1 oocyte-1
PfCRT variant F203A; F203A, CQ transport at pH 4.5 / pH 6.0
  R-value: 0.36 ± 0.07
PfCRT variant F203A; [3]
  F203A transport activity pH 4.5: 0.48 pmol oocyte-1 h-1 and 1.22 pmol oocyte-1 h-1 and 1.1 pmol oocyte-1 h-1
PfCRT variant F203A; [4]
  F203A transport activity pH 6.0: 2.29 pmol oocyte-1 h-1 and 2.47 pmol oocyte-1 h-1 and 2.88 pmol oocyte-1 h-1
